Assay [1] relates to recombinant NA A/H7N9. The format is biochemical, influenza A virus.
Assay [2] relates to influenza A/H5N1 virus. The format is cell-based.
The subject of assay [3] is influenza A/H7N9 virus. The format is cell-based.

Some results are limits rather than exact numbers.

As to `CC(=O)N[C@H]1[C@H]([C@H](O)[C@H](O)CO)OC(C(=O)O)=C[C@@H]1N=C(N)N` [ZAN, zanamivir], in assay [1], the IC50 was over 100 nM.
Consider `O=C1c2c(O)c(=O)ccn2N([C@@H]2c3ccccc3SCc3c2ccc(F)c3F)[C@@H]2COCCN12` [BXA, baloxavir acid], for which the EC50 in assay [2] and in assay [3] was under 0.03 nM throughout.

The values above are taken from article PMC11964917 (Nature Microbiology, 2025).
